Results published in US12077503B2, “Substituted cyclic amides and their use as herbicides” (FMC CORPORATION, priority 2015, dated 2024).

Tests used:
Format in all cases: in vivo
[1] = system: ducksalad (Heteranthera limosa); test: Test B flooded paddy test; conditions: Heteranthera limosa, 250 g ai/ha, Flood; 0 to 100 scale where 0 is no effect and 100 is complete control; read-out: Ducksalad plant response rating
Outline: (§1)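 Response scored visually against untreated controls, 0 = no effect and 100 = complete control, 13–15 d after treatment in the greenhouse. Compounds added to paddy water held 3 cm above soil surface. Treatment given at 2-leaf stage.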

[2] = system: barnyardgrass (Echinochloa crus-galli); test: Test B flooded paddy test; conditions: Echinochloa crus-galli, 250 g ai/ha, Flood; 0 to 100 scale where 0 is no effect and 100 is complete control; read-out: Barnyardgrass plant response rating
Outline: as §1

[3] = system: sedge, umbrella (small-flower umbrella sedge, Cyperus difformis); test: Test B flooded paddy test; conditions: Cyperus difformis, 250 g ai/ha, Flood; 0 to 100 scale where 0 is no effect and 100 is complete control; read-out: Sedge, Umbrella plant response rating
Outline: as §1

rice (Oryra sativa) = test: Test B flooded paddy test; conditions: Oryza sativa, 250 g ai/ha, Flood; 0 to 100 scale where 0 is no effect and 100 is complete control; read-out: Rice plant response rating
Outline: as §1

[4] = system: ryegrass, Italian (Italian ryegrass, Lolium multiflorum); test: Test A postemergence; conditions: Lolium multiflorum, post-emergence, 240 h; for pest or weed control at 125 g/ha: 125 g ai/ha, postemergence, visual injury vs untreated controls after approx. 10 d, 0 = no effect, 100 = complete control, read-out: Ryegrass, Italian plant response rating (0 to 100 scale)
Outline: (§2)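 Each rating is a visual injury score from 0 to 100 given about 10 d after treatment, judged against untreated controls kept alongside in the greenhouse. In loam soil–sand blend, seeds got a preemergence directed soil spray, while postemergence plants were 2 to 10 cm tall at spraying.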

corn (Zea mays) = test: Test A postemergence; conditions: Zea mays, post-emergence, 240 h; for plant injury at 125 g/ha: 125 g ai/ha, postemergence, visual injury vs untreated controls after approx. 10 d, 0 = no effect, 100 = complete control, read-out: Corn plant response rating (0 to 100 scale); for Corn plant response rating (crop injury, 0 = no effect, 100 = complete kill) at 31 g/ha: Postemergence, 31 g ai/ha, visual injury after approx. 10 d, 0 to 100 scale, 100 complete control
Outline: as §2

[5] = system: barnyardgrass (Echinochloa crus-galli); test: Test A postemergence; conditions: Echinochloa crus-galli, post-emergence, 240 h; for pest or weed control at 125 g/ha: 125 g ai/ha, postemergence, visual injury vs untreated controls after approx. 10 d, 0 = no effect, 100 = complete control, read-out: Barnyardgrass plant response rating (0 to 100 scale); for pest or weed control at 31 g/ha: Postemergence, 31 g ai/ha, visual injury after approx. 10 d, 0 to 100 scale, 0 no effect, 100 complete control, read-out: Plant response rating, Barnyardgrass
Outline: as §2

[6] = system: pigweed (Amaranthus retroflexus); test: Test A postemergence; conditions: Amaranthus retroflexus, post-emergence, 240 h; for pest or weed control at 125 g/ha: 125 g ai/ha, postemergence, visual injury vs untreated controls after approx. 10 d, 0 = no effect, 100 = complete control, read-out: Pigweed plant response rating (0 to 100 scale)
Outline: as §2

[7] = system: blackgrass (Alopecurus myosuroides); test: Test A postemergence; conditions: Alopecurus myosuroides, post-emergence, 240 h; for pest or weed control at 125 g/ha: 125 g ai/ha, postemergence, visual injury vs untreated controls after approx. 10 d, 0 = no effect, 100 = complete control, read-out: Blackgrass plant response rating (0 to 100 scale); for pest or weed control at 31 g/ha: Postemergence, 31 g ai/ha, visual injury after approx. 10 d, 0 to 100 scale, 0 no effect, 100 complete control, read-out: Plant response rating, Blackgrass
Outline: as §2

[8] = system: Galium (catchweed bedstraw, Galium aparine); test: Test A postemergence; conditions: Galium, post-emergence, 240 h; for pest or weed control at 125 g/ha: 125 g ai/ha, postemergence, visual injury vs untreated controls after approx. 10 d, 0 = no effect, 100 = complete control, read-out: Galium plant response rating (0 to 100 scale); for pest or weed control at 31 g/ha: Postemergence, 31 g ai/ha, visual injury after approx. 10 d, 0 to 100 scale, 0 no effect, 100 complete control, read-out: Plant response rating, Galium
Outline: as §2

[9] = system: ragweed (common ragweed, Ambrosia elatior); test: Test A postemergence; conditions: Ambrosia artemisiifolia, post-emergence, 240 h; for pest or weed control at 125 g/ha: 125 g ai/ha, postemergence, visual injury vs untreated controls after approx. 10 d, 0 = no effect, 100 = complete control, read-out: Ragweed plant response rating (0 to 100 scale)
Outline: as §2

[10] = system: giant foxtail (Setaria faberii); test: Test A postemergence; conditions: Setaria faberi, post-emergence, 240 h; for pest or weed control at 125 g/ha: 125 g ai/ha, postemergence, visual injury vs untreated controls after approx. 10 d, 0 = no effect, 100 = complete control, read-out: Foxtail, Giant plant response rating (0 to 100 scale); for pest or weed control at 31 g/ha: Postemergence, 31 g ai/ha, visual injury after approx. 10 d, 0 to 100 scale, 0 no effect, 100 complete control, read-out: Plant response rating, Foxtail, Giant
Outline: as §2

[11] = system: wheat (Triticum aestivum); test: Test A postemergence; conditions: Triticum aestivum, post-emergence, 240 h; for plant injury at 125 g/ha: 125 g ai/ha, postemergence, visual injury vs untreated controls after approx. 10 d, 0 = no effect, 100 = complete control, read-out: Wheat plant response rating (0 to 100 scale)
Outline: as §2

Kochia (Kochia scoparia) [12] = test: Test A postemergence; conditions: Bassia scoparia, post-emergence, 240 h; for pest or weed control at 125 g/ha: 125 g ai/ha, postemergence, visual injury vs untreated controls after approx. 10 d, 0 = no effect, 100 = complete control, read-out: Kochia plant response rating (0 to 100 scale); for pest or weed control at 31 g/ha: Postemergence, 31 g ai/ha, visual injury after approx. 10 d, 0 to 100 scale, 0 no effect, 100 complete control, read-out: Plant response rating, Kochia
Outline: as §2

[13] = system: ryegrass, Italian (Italian ryegrass, Lolium multiflorum); test: Test A preemergence; conditions: Lolium multiflorum, pre-emergence, 240 h, 0 to 100 scale where 0 is no effect and 100 is complete control, read-out: Ryegrass, Italian plant response rating; for pest or weed control at 31 g/ha: 31 g ai/ha, Preemergence; for pest or weed control at 125 g/ha: 125 g ai/ha, preemergence, approx. 10 d
Outline: as §2

[14] = system: barnyardgrass (Echinochloa crus-galli); test: Test A preemergence; conditions: Echinochloa crus-galli, pre-emergence, 240 h, 0 to 100 scale where 0 is no effect and 100 is complete control, read-out: Barnyardgrass plant response rating; for pest or weed control at 31 g/ha: 31 g ai/ha, Preemergence; for pest or weed control at 125 g/ha: 125 g ai/ha, preemergence, approx. 10 d
Outline: as §2

[15] = system: pigweed (Amaranthus retroflexus); test: Test A preemergence; conditions: Amaranthus retroflexus, pre-emergence, 240 h, 0 to 100 scale where 0 is no effect and 100 is complete control, read-out: Pigweed plant response rating; for pest or weed control at 31 g/ha: 31 g ai/ha, Preemergence; for pest or weed control at 125 g/ha: 125 g ai/ha, preemergence, approx. 10 d
[16] = system: ragweed (common ragweed, Ambrosia elatior); test: Test A preemergence; conditions: Ambrosia artemisiifolia, pre-emergence, 240 h, 0 to 100 scale where 0 is no effect and 100 is complete control, read-out: Ragweed plant response rating; for pest or weed control at 31 g/ha: 31 g ai/ha, Preemergence; for pest or weed control at 125 g/ha: 125 g ai/ha, preemergence, approx. 10 d
Outline: as §2

[17] = system: giant foxtail (Setaria faberii); test: Test A preemergence; conditions: Setaria faberi, pre-emergence, 240 h, 0 to 100 scale where 0 is no effect and 100 is complete control, read-out: Foxtail, Giant plant response rating; for pest or weed control at 31 g/ha: 31 g ai/ha, Preemergence; for pest or weed control at 125 g/ha: 125 g ai/ha, preemergence, approx. 10 d
Outline: as §2

Kochia (Kochia scoparia) [18] = test: Test A preemergence; conditions: Bassia scoparia, pre-emergence, 240 h, 0 to 100 scale where 0 is no effect and 100 is complete control, read-out: Kochia plant response rating; for pest or weed control at 31 g/ha: 31 g ai/ha, Preemergence; for pest or weed control at 125 g/ha: 125 g ai/ha, preemergence, approx. 10 d
Outline: as §2

| SMILES | pest or weed control at 250 g/ha [1] | pest or weed control at 250 g/ha [2] | pest or weed control at 250 g/ha [3] | pest or weed control at 250 g/ha (rice (Oryra sativa)) | pest or weed control at 125 g/ha [4] | plant injury at 125 g/ha (corn (Zea mays)) | Corn plant response rating (crop injury, 0 = no effect, 100 = complete kill) at 31 g/ha (corn (Zea mays)) | pest or weed control at 125 g/ha [5] | pest or weed control at 31 g/ha [5] | pest or weed control at 125 g/ha [6] | pest or weed control at 125 g/ha [7] | pest or weed control at 31 g/ha [7] | pest or weed control at 125 g/ha [8] | pest or weed control at 31 g/ha [8] | pest or weed control at 125 g/ha [9] | pest or weed control at 125 g/ha [10] | pest or weed control at 31 g/ha [10] | plant injury at 125 g/ha [11] | pest or weed control at 125 g/ha (Kochia (Kochia scoparia) [12]) | pest or weed control at 31 g/ha (Kochia (Kochia scoparia) [12]) | other results |
| --- | --- | --- | --- | --- | --- | --- | --- | --- | --- | --- | --- | --- | --- | --- | --- | --- | --- | --- | --- | --- | --- |
| O=C1NC[C@H](c2csc3c2CCC3)[C@H]1C(=O)Nc1cccc(F)c1F [Compound 1164] | 95% | 40% | 0% | 0% | 0% | 0% | 0% | 80% | 30% | 0% | 0% | 0% | 30% | 0% | 0% | 0% | 0% | 0% | 0% | 0% | pest or weed control at 31 g/ha ([4]; Postemergence, 31 g ai/ha, visual injury after approx. 10 d, 0 to 100 scale, 0 no effect, 100 complete control, read-out: Plant response rating, Ryegrass, Italian): 0%; pest or weed control at 31 g/ha ([6]; Postemergence, 31 g ai/ha, visual injury after approx. 10 d, 0 to 100 scale, 0 no effect, 100 complete control, read-out: Plant response rating, Pigweed): 0%; pest or weed control at 31 g/ha ([9]; Postemergence, 31 g ai/ha, visual injury after approx. 10 d, 0 to 100 scale, 0 no effect, 100 complete control, read-out: Plant response rating, Ragweed): 0%; plant injury at 31 g/ha ([11]; Postemergence, 31 g ai/ha, visual injury after approx. 10 d, 0 to 100 scale, 0 no effect, 100 complete control, read-out: Plant response rating, Wheat): 0%; pest or weed control at 31 g/ha [13]: 0%; pest or weed control at 125 g/ha [13]: 0%; pest or weed control at 31 g/ha [14]: 60%; pest or weed control at 125 g/ha [14]: 80%; pest or weed control at 31 g/ha [15]: 0%; pest or weed control at 125 g/ha [15]: 0%; pest or weed control at 31 g/ha [16]: 0%; pest or weed control at 125 g/ha [16]: 0%; pest or weed control at 31 g/ha [17]: 30%; pest or weed control at 125 g/ha [17]: 30%; pest or weed control at 31 g/ha (Kochia (Kochia scoparia) [18]): 0%; pest or weed control at 125 g/ha (Kochia (Kochia scoparia) [18]): 20% |
| CON1CC[C@H](c2cccc(C(F)(F)F)c2)[C@@H](C(=O)Nc2ccccc2C(F)(F)F)C1=O [Compound 1172] | 0% | 0% | 0% | 0% | 0% | 0% | 0% | 0% | 0% | 0% | 0% | 0% | 0% | 0% | 0% | 0% | 0% | 0% | 0% | 0% | pest or weed control at 31 g/ha [13]: 0%; pest or weed control at 125 g/ha [13]: 0%; pest or weed control at 31 g/ha [14]: 0%; pest or weed control at 125 g/ha [14]: 0%; pest or weed control at 31 g/ha [15]: 0%; pest or weed control at 125 g/ha [15]: 0%; pest or weed control at 31 g/ha [16]: 0%; pest or weed control at 125 g/ha [16]: 0%; pest or weed control at 31 g/ha [17]: 0%; pest or weed control at 125 g/ha [17]: 0%; pest or weed control at 31 g/ha (Kochia (Kochia scoparia) [18]): 0%; pest or weed control at 125 g/ha (Kochia (Kochia scoparia) [18]): 0% |
